These results are taken from patent US11168131B2, “Antibody molecule-drug conjugates and uses thereof” (priority 2015, dated 2021).

The test system of one assay is E. coli. Nature of the assay: Minimal inhibitory concentration (MIC) assay, broth microdilution. It is filed as cell-based, Escherichia coli. Particulars: for MIC (mg/ml) Eco 43745: in the presence of PBS. (In broth dilution the organism is exposed to a series of concentrations in liquid medium.)
For assay [1], the system named is P. aeruginosa. The description is as above. Particulars: for MIC (mg/ml) Pae 27853 / MIC (mg/ml) Pae 39324: in the presence of PBS. Type of assay: cell-based, Pseudomonas aeruginosa.
The subject of assay [2] is P. aeruginosa. Put plainly: MIC in the presence of 50% human serum (hsMIC). It is filed as cell-based, Pseudomonas aeruginosa. Particulars: for hsMIC/MIC: Pae 27853, ratio of hsMIC to MIC; for 50% hsMIC (μg/ml) Pae 27853: in the presence of 50% human serum. On the procedure: In an embodiment, the MIC is determined in the presence of phosphate-buffered saline (PBS). In an embodiment, the MIC or hsMIC is determined on per ADC basis. In an embodiment, the MIC or hsMIC is determined on per payload or antimicrobial peptide basis.

The test system of the next assay is S. aureus. Put plainly: Minimal inhibitory concentration (MIC) assay, broth microdilution. It is filed as cell-based, Staphylococcus aureus. Particulars: in the presence of PBS.
Assay [3] relates to multiple drug resistant (MDR) strains of P. aeruginosa. Put plainly: Microbial killing assay against multiple drug resistant strains. Type of assay: cell-based, Pseudomonas aeruginosa. Particulars: assay as in Example 15; for 50% Killing Activity BAA-2108: MDR P. aeruginosa strain BAA-2108; for 50% Killing Activity BAA-2110: MDR P. aeruginosa strain BAA-2110; for 50% Killing Activity BAA-2114: MDR P. aeruginosa strain BAA-2114; for 50% Killing Activity Pae 27853: P. aeruginosa strain 27853. On the procedure:
The microbial killing assay was performed as follows. Bacterial cells were grown aerobically overnight on agar plates at 37° C. Overnight plates were used to seed 30 ml cultures of growth media in 250 ml vented flasks. Cultures were grown aerobically at 37° C., shaking at 150 rpm. Growth was monitored at A600 […] and bacterial cells were harvested at mid-log growth. Ten ml of culture was pelleted at 4000×G for 10 minutes and washed one time with PBS plus 1% BSA before re-suspending in 2 ml PBS+BSA. […] Cultures were diluted to 1×10^4 cells/ml in PBS plus BSA. Test articles were diluted in PBS+1% BSA and 50 μl per concentration tested was loaded into a 96 well polypropylene microtiter plate. Fifty μl of diluted culture was added to all test wells as well as no compound control wells. Plates were shaken and incubated at 37° C., 90 minutes, static. Ten μl from each assay well was plated onto agar plates and incubated at 37° C. overnight. Percent killing was determined by the CFU for test wells compared to the CFU for no compound control wells.

A further assay relates to K. pneumoniae. Nature of the assay: Minimal inhibitory concentration (MIC) assay, broth microdilution. It is filed as cell-based, Klebsiella pneumoniae. Particulars: in the presence of PBS.

Take “GGGGIGKFLKKAKKFGKAFVKILKK [Peptide P261]”: the “MIC (mg/ml) Eco 43745” value in the assay with E. coli stood at 0.004 mg/mL.
Still for that read-out and setting: the figure for “GGGGLRKRLRKFRNKIKEKLKKIGQKIQGLLPKLA [Peptide P271]” is 0.004 mg/mL.
As for “GGGKRFKKFFKKLKNSVKKRAKKFFKKPRVIGVSIPF [Peptide P296]”, in the assay on P. aeruginosa [1], the “MIC (mg/ml) Pae 27853” value amounted to 4 mg/mL and the “MIC (mg/ml) Pae 39324” value stood at 2 mg/mL. Moreover, in the assay on P. aeruginosa [2], the hsMIC/MIC was determined as 0.25 and the “50% hsMIC (μg/ml) Pae 27853” value was 1 µg/mL. Further, the “MIC (mg/ml) Eco 43745” value with E. coli came to 0.004 mg/mL.
Take “GGGGSGGGGSGIGKFLKKAKKFGKAFVKILKK [peptide 23]”: the “MIC μg/ml Eco 25922” value in the assay with E. coli turned out to be 8 µg/mL.
In the case of Ceftazadime [reference compound], in the assay on P. aeruginosa [1], the “MIC (mg/ml) Pae 27853” value stood at 1 mg/mL and the “MIC (mg/ml) Pae 39324” value was found to be 1 mg/mL. In the assay on P. aeruginosa [2], the hsMIC/MIC came to 1 and the “50% hsMIC (μg/ml) Pae 27853” value is 1 µg/mL. Besides, the “MIC (mg/ml) Sau 29213” value with S. aureus worked out at 0.004 mg/mL.
Turning to “GGGGRFKRFRKKFKKLFKKLSPVIPLLHLG [Peptide P295]”, in the assay on P. aeruginosa [1], the “MIC (mg/ml) Pae 27853” value came out at 4 mg/mL and the “MIC (mg/ml) Pae 39324” value was determined as 4 mg/mL. Besides, in the assay with P. aeruginosa [2], the hsMIC/MIC was found to be 0.5 and the “50% hsMIC (μg/ml) Pae 27853” value came out at 2 µg/mL. In addition, in assay [3], the “50% Killing Activity BAA-2108” value amounted to 0.6 µg/mL, the “50% Killing Activity BAA-2110” value came out at 0.6 µg/mL, the “50% Killing Activity BAA-2114” value came to 0.14 µg/mL and the “50% Killing Activity Pae 27853” value was found to be 0.3 µg/mL.
“(MAL)-(EG3)-GIGKFLKKAKKFGKAFVKILKK [peptide 21]”: the “MIC μg/ml Eco 25922” value in the assay with E. coli came to 8 µg/mL.
Turning to “RLGNFFRKAKKKIGRGLKKIGQKIKDFLGNLVPRTES [peptide 128]”, in the assay with P. aeruginosa [1], the “MIC μg/ml Pae 27853” value worked out at 8 µg/mL.
Turning to “GGGRGLRRLGRKIAHGVKKYGPTVLRIIKKYG [Peptide P294]”, the “MIC (mg/ml) Kpn 700603” value in the assay with K. pneumoniae worked out at 0.008 mg/mL. For the same substance, the “MIC (mg/ml) Eco 43745” value in the assay on E. coli is 0.002 mg/mL.
As to “GAFGNFLKGVAKKAGLKILSIAQCKLFGTC [peptide 70]”, the “MIC μg/ml Pae 27853” value in the assay on P. aeruginosa [1] was 8 µg/mL. The “MIC μg/ml Eco 25922” value in the assay with E. coli came out at 4 µg/mL.
Regarding “GLRKRLRKFRNKIKEKLKKIGQKIQGLLPKLA [Peptide 33]”, the “MIC μg/ml Pae 27853” value in the assay on P. aeruginosa [1] was found to be 8 µg/mL. Also, in the assay with E. coli, the “MIC μg/ml Eco 25922” value came to 8 µg/mL.
As to GIGKFLKKAKKFGKAFVKILKK [peptide 109], in the assay on P. aeruginosa [1], the “MIC μg/ml Pae 27853” value was found to be 8 µg/mL. Also, the “MIC μg/ml Eco 25922” value in the assay on E. coli came out at 4 µg/mL.
For “GGG-D-Dab-cyclic(L-Dab-L-Dab-D-Leu-L-Phe-L-Dab-L-Dab-L-Leu) [GGG-Octapeptin]”, in the assay on P. aeruginosa [1], the “MIC (mg/ml) Pae 27853” value stood at 2 mg/mL and the “MIC (mg/ml) Pae 39324” value turned out to be 2 mg/mL. The “MIC (mg/ml) Kpn 700603” value in the assay with K. pneumoniae is over 0.128 mg/mL. For the same substance, in the assay with P. aeruginosa [2], the hsMIC/MIC came out at 1 and the “50% hsMIC (μg/ml) Pae 27853” value came out at 2 µg/mL. In addition, the “MIC (mg/ml) Sau 29213” value with S. aureus was over 0.128 mg/mL.
“GIGKFLKKAKKFGKAFVKILKKGGGGSGGGGS [peptide 24]”: the “MIC μg/ml Pae 27853” value in the assay with P. aeruginosa [1] is 8 µg/mL.
“GGGLLGDFFRKSKEKIGKEFKRIVQRIKDFLRNLVPRTES [Peptide P265]”: the “MIC (mg/ml) Kpn 700603” value in the assay with K. pneumoniae was over 0.128 mg/mL. Also, in the assay on P. aeruginosa [2], the hsMIC/MIC was over 4 and the “50% hsMIC (μg/ml) Pae 27853” value was over 128 µg/mL. In the assay with E. coli, the “MIC (mg/ml) Eco 43745” value is 0.008 mg/mL.
For “GGGGLRRLGRKIAHGIKKYGPTILRIIRIAG [Peptide P293]”, in the assay on P. aeruginosa [1], the “MIC (mg/ml) Pae 27853” value was 8 mg/mL and the “MIC (mg/ml) Pae 39324” value was 2 mg/mL. In addition, the “MIC (mg/ml) Kpn 700603” value with K. pneumoniae is 0.004 mg/mL. Further, the “MIC (mg/ml) Eco 43745” value with E. coli is 0.004 mg/mL.
“GGGKFFRKLKKSVKKRAKEFFKKPRVIGVSIPF [Peptide P297]”: in the assay on P. aeruginosa [1], the “MIC (mg/ml) Pae 27853” value amounted to 4 mg/mL and the “MIC (mg/ml) Pae 39324” value was found to be 2 mg/mL. In the assay with P. aeruginosa [2], the hsMIC/MIC turned out to be 2 and the “50% hsMIC (μg/ml) Pae 27853” value came out at 8 µg/mL. Moreover, in assay [3], the “50% Killing Activity BAA-2108” value is 0.28 µg/mL, the “50% Killing Activity BAA-2110” value was 0.28 µg/mL, the “50% Killing Activity BAA-2114” value is 0.07 µg/mL and the “50% Killing Activity Pae 27853” value stood at 0.04 µg/mL. Besides, the “MIC (mg/ml) Eco 43745” value in the assay on E. coli was found to be 0.002 mg/mL.
